How the values were obtained:
U2-OS cells = assay: U2-OS cell proliferation assay (WST-1); assay type: cell-based, human; details: 100 μM; for Effect on proliferation of U2-OS cells: Day 0 through Day 3
Experimental: WRN inhibitors were diluted in DMSO to a concentration 100-fold higher than their final concentrations. U2-OS cells in culture were counted, spun down and resuspended to 35,000 cells/mL in DMEM with 10% FBS and Pen/Strep antibiotic. For each cell condition, 15 μL of DMSO or inhibitor was added to 1.5 ml of U2-OS cells in DMEM or DMEM alone. One hundred μL of each cell condition was plated in triplicate on each of four 96-well plates representing days 0–3. Ten μL of WST-1 cell proliferation reagent (Roche) was added to the day 0 plate and readings were taken 2 hr later using a plate reader set to 450 nm. WST-1 cell proliferation reagent was added to plates on days 1–3 and readings were taken after 2 hr incubation. Percent cell proliferation was normalized to cells in the presence of DMSO with the background OD450 of DMEM with each drug subtracted out.
Fig 9 Effects of WRN helicase inhibitors on cancer cell proliferation. (A) Cell proliferation of HeLa 1.2.11 cells treated with 50 μM NCGC00029283-03, NCGC00063279-03, NCGC00357377-01 and NSC 617145 (positive control) or vehicle (DMSO) on Day 0 and Day 3 as measured using the WST-1 cell proliferation reagent. (B) Cell proliferation of U2-OS cells treated with increasing amounts of NCGC00029283-03 (0–100 μM) from Day 0 through Day 3. (C) Cell proliferation of U2-OS cells treated with increasing amounts of NCGC00063279-03 (0–100 μM) from Day 0 through Day 3. (D) Cell proliferation of U2-OS cells treated with 100 μM NCGC00357377-01 from Day 0 through Day 3.
HeLa cells are characterized by reduced expression of wild-type p53 as well as an inability to increase p53 levels after DNA damage due to human papillomavirus (HPV) elements. This raised the possibility that p53 status may play a role in the ability of small molecule WRN helicase inhibitors to affect cell proliferation. In addition, HeLa 1.2.11 cells are characterized by relatively long telomeres and use telomerase to maintain telomere length. Since WRN is implicated in the Alternative Lengthening of Telomeres (ALT) pathway, cells that are dependent on the ALT pathway may be more sensitive to WRN inhibitors as well. To address this possibility, we treated U2-OS osteosarcoma cells (which express wild-type p53 and utilize the ALT pathway for keeping very long telomeres) with all three compounds. In this case, we observed a 50% reduction in U2-OS cell proliferation two days after initial exposure to NCGC00029283-03 (100 μM).

full-length WRN helicase = target: T1, full-length WRN helicase (Homo sapiens, UniProt Q14191); assay: Radiometric helicase inhibitor reversibility assay (100-fold dilution); assay type: biochemical; set-up: key to Reversibility: (-) = irreversible; (+) = minimally reversible; (++) = partially reversible; (+++) = reversible; details: for Reversibility: WRN 100 nM preincubated at 10-fold IC50, diluted 100-fold, unwinding 0-16 min; for Reversibility of inhibition (in words): full-length WRN
T1 construct: Full length recombinant WRN [18], BLM [19], and FANCJ [20] proteins were purified from insect cells; made in house; host or cells: insect cells
Experimental: WRN (full length, 100 nM concentration) was incubated with each small molecule inhibitor at a concentration 10-fold higher than the IC50 for that inhibitor, in a 10 μL reaction at room temperature. 1.5 μL of this reaction was added to 148.5 μL of reaction salts with 2 mM ATP, 0.5 nM FORKR reducing the full length WRN concentration to 1 nM and the drug concentration to 10-fold less than its IC50. Reactions were placed at 37°C and 20 μL of reaction were removed at specific intervals (0–16 min) and quenched with 20 μL of 2X STOP dye containing EDTA, glycerol, bromphenol blue and xylene cyanol. Samples were electrophoresed for 1.5 hr at 200 V on a 12% non-denaturing PAGE gel in 1X TBE Buffer.
Eighteen compounds were selected based on potency of inhibition in both the screening and radiometric assays, and exclusion of compounds with undesired chemical features. For each compound, we performed titrations over a wide range of concentrations with a fixed concentration of full-length WRN protein (1 nM), and quantitated unwinding as a percentage of full-length WRN unwinding of the FORKR DNA substrate (0.5 nM) in the absence of compound (Fig 6A and 6B, S3 Fig). […] In addition to determining an IC50 value for each compound, we also conducted helicase assays to determine the reversibility of inhibition by each compound tested. Details of the assay can be found in the Materials and Methods section, but briefly 100 nM WRN was incubated with each compound at a concentration 10-fold higher than its IC50 value. The reaction was diluted 100-fold with the addition of DNA substrate (0.5 nM final concentration) and ATP (2 mM final concentration) and unwinding was measured (Fig 7A–7D, S4 Fig). Inhibition was either classified as reversible, partially reversible, minimally reversible, or irreversible based on the ability of helicase activity to recover after dilution of the compound 100-fold. Table 2 summarizes the IC50 values and reversibility for each compound and includes IC50 values obtained from the screens for comparison.

T1 sequence (Q14191 whole entry): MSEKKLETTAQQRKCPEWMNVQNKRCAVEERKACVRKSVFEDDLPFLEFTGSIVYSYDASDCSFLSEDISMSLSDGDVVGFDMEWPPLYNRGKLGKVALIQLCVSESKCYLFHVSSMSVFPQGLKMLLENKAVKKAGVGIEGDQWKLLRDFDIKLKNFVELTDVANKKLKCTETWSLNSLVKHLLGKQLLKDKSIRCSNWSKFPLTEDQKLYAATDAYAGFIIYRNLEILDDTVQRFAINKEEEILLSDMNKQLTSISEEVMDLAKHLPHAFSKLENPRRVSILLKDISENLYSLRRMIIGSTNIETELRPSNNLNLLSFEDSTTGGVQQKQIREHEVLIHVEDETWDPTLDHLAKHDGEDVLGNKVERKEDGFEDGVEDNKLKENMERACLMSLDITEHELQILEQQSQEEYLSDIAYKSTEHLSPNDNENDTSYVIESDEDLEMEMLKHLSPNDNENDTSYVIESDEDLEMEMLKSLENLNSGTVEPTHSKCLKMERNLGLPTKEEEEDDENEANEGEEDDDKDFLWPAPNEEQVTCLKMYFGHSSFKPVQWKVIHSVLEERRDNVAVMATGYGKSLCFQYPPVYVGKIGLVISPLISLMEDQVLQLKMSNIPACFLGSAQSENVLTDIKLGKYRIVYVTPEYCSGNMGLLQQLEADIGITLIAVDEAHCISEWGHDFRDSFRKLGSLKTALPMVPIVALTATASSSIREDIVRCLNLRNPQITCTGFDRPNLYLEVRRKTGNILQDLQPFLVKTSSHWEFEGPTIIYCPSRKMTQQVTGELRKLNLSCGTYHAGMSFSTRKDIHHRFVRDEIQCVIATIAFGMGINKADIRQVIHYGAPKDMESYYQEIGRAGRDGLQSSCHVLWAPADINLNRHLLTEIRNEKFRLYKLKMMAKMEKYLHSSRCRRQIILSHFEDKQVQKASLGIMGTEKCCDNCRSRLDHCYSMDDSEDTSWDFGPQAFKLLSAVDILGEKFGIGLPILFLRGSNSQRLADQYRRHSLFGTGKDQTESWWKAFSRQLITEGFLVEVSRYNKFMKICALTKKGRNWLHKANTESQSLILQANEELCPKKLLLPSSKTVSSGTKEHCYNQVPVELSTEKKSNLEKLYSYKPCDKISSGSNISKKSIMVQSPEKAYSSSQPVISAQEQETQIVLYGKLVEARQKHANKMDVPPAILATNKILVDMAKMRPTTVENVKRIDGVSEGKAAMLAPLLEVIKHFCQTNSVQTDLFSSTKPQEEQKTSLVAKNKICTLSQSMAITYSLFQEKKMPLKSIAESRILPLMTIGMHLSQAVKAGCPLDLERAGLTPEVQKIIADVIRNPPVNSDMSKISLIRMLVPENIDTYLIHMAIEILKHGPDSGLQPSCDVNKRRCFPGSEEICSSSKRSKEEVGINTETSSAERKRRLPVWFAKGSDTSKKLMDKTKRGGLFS

SMILES	Effect on proliferation of U2-OS cells (U2-OS cells; listed as NCGC00357377)	Effect on proliferation of U2-OS cells (U2-OS cells; listed as NCGC00357377-01)	Reversibility (full-length WRN helicase)	Effect on proliferation of U2-OS cells (U2-OS cells)	Reduction in U2-OS cell proliferation (U2-OS cells; two days after initial exposure) [%]	Reversibility of inhibition (in words) (full-length WRN helicase)	Reduction in U2-OS cell proliferation (U2-OS cells; after three days exposure) [%]
Cc1ccc(-c2csc(NS(=O)(=O)c3cccc(F)c3)n2)o1 [MLS002251300-02]	did not reduce cell proliferation	did not have any effect	++	–	–	–	–
COc1ccc2nc(O)c(-c3noc(-c4ccc(F)cc4)n3)cc2c1 [NCGC00029283-02]	–	–	++	also detectable after three days	50	at least partially reversible	–
COc1ccc2nc(O)c(-c3noc(-c4ccccc4)n3)cc2c1 [NCGC00063279-02]	–	–	+++	–	–	at least partially reversible	40

Reference: paper PMC6326523, “A high-throughput screen to identify novel small molecule inhibitors of the Werner Syndrome Helicase-Nuclease (WRN)” (PLoS ONE, 2019)
